Data taken from patent US5871779A, “Treatment of arthropathies with vanadate compounds or analogues thereof” (Mount Sinai Hospital Corporation, priority 1996, dated 1999).
“And” between values parts separate entries of the source, which are not always exact repeats. Identical values can stand only once.

Key:
MDAY-D2 tumor = experiment: BMOV loaded microspheres on tumor growth (Example 19); type: in vivo, mice; settings: BMOV solution
Procedure: The effect of slow releasing microspheres loaded with 20% BNOV on tumor growth in mice was investigated as follows.
On day 6 the mice were divided into 6 groups as follows: group 1, empty control; group 3, tumor control; group 3, […]; group 4, injected IP with 20 mg palla beads containing 5 mg of BMOV; group 5, injected IP with 10 mg of BMOV beads on day 6 and day 9 respectively and; group 6, injected intramuscularly with 10 mg of BMOV beads on day 6 and day 9. On day 16, the mice were sacrificed and tumors were dissected.

[1] = test system: metastases of MDAY-D2 cells; experiment: liver metastases of MDAY-D2 cells (histology); type: in vivo, mice; settings: 500 μg/day; preliminary results
Text: In order to examine the ability of vanadyl compounds to reduce tumor formation, growth and metastases, a specific animal model which allows investigation of all of these processes in the same animal was chosen. This model involves the injection of a metastatic haematopoietic cell line, MDAY-D2, into mice subcutaneously. These cells form a tumor at the site of injection and its size can be easily determined. In addition, these cells metastasize to the liver and metastases can be detected histologically after day 17 to 19. This model provides a very sensitive and reproducible approach to investigate the effect of vanadyl compounds on tumor growth and metastases.
The metastatic liver was obtained from an animal 24 days following the administration MDAY-D2 cells. The nodules are quite numerous and large.
Livers were removed from animals treated as described above and prepared for histological examination. FIG. 16 compares liver sections from untreated (C), orthovanadate (VO)(500 μg/day) and vanadyl sulphate (VS)(500 μg/day) treated animals. Nodules are identified with an arrow.

fos = fos / c-fos mRNA expression in chondrocytes (Northern blot); type: cell-based, bovine; settings: 100 μM
How it was run: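 Bovine articular chondrocytes incubated 1 h with IL-1, PMA or AA (3 μM), or treated with IL 1 ± DPI, or with H2O2 for 30, 60 and 90 min. Total RNA run on formaldehyde agarose gels and probed by Northern blot with c-fos, c-jun or collagenase cDNA.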

synoviocytes = experiment: synoviocyte proliferation, dye exclusion (Example 24); type: cell-based
Procedure: The effect of vanadium compounds on synoviocyte proliferation was investigated as follows. Synoviocytes were plated on six well plates and treated with orthovanadate or vanadyl sulphate and incubated for 24 hours. The cells were removed and the number of viable cells determined by the dye exclusion method.

[2] = test system: non-proliferating chondrocytes; experiment: viability of non-proliferating chondrocytes (high cell density); type: cell-based; settings: 0-50 μM, 48 hours
Procedure: In order to compare the effect of orthovanadate on non-proliferating and proliferating chondrocytes, chondrocytes were plated at both high cell density (2×10^6 to 4×10^6 cells/per well on a six well plate) (nonproliferating) and at a lower cell density (5×10^5 to 1×10^6 cells/per well on a six well plate) (proliferating) and then maintained for 48 hours. The cells were then incubated in media (HAMS F12) containing 0-50 μM Orthovanadate for an additional 48 hours. The cells were harvested and the number of viable cells determined.

tumor growth = tumor growth in vivo, orthovanadate and N-acetylcysteine (Example 7); parameters: species or system mice
Procedure: Since N-acetylcysteine is converted to glutathione in cells, higher levels of glutathione may not only reduce orthovanadate induced toxicity but may also reduce tumor formation.
Twenty mice were injected subcutaneously with 2×10^5 cells on Day 1. At day 4, the mice were divided into four groups of five mice. Group one (control) received subcutaneous injections of 50 μl of water. Group two received daily intraperitoneal injections of 50 μl of 250 mM N-acetylcysteine. Group three received daily subcutaneous injections of 50 μl of 10 mg/ml of orthovanadate. Group four received daily intraperitoneal injections of 50 μl of […] N-acetylcysteine and 20 minutes later received 50 μl of subcutaneous injection of 50 μl of 10 mg/ml of orthovanadate. On day 10 the treatment was stopped. The animals were sacrificed on Day 13 and analyzed for tumor growth.

| Structure (SMILES) | Tumour weight, Average (MDAY-D2 tumor) | Tumour weight (MDAY-D2 tumor; individual mice) | metastases in liver [1] | inhibition of IL 1, PMA and AA induced c-fos expression (fos) | Number of cells (synoviocytes; 25 μM, 24 hours (control 2.6)) | cytotoxicity to synoviocytes (synoviocytes; 24 hours) | synoviocyte proliferation (synoviocytes; 24 hours) | effect on chondrocytes plated at high cell density [2] | detectable tumors (tumor growth; day 13) | animal deaths (tumor growth; orthovanadate 50 μl 10 mg/ml s.c. daily) |
| --- | --- | --- | --- | --- | --- | --- | --- | --- | --- | --- |
| Cc1occc(=O)c1[O-].Cc1occc(=O)c1[O-].[O]=[V+2] [BMOV, bis(methylmaltolato) oxovanadium (IV)] | 0.15 | 0.4 and 0.12 and 0.07 and 0.04 |  |  |  |  |  |  |  |  |
| [Na+].[Na+].[Na+].[O]=[V]([O-])([O-])[O-] [orthovanadate, sodium orthovanadate] |  |  | did not have detectable levels of metastases | completely inhibited | 0.1 10^-5 | cytotoxic to the cells | inhibited synoviocyte proliferation | did not effect | two had no detectable tumors | One orthovanadate treated animal died |
